How the values were obtained:
[1] = system: human tonsillar B cells; test: 4HT-dependent growth of CA-STAT5b-ER transduced tonsillar B cells; assay type: cell-based; conditions: 1 μM 4HT, CD40L, IL-2 and IL-4
Procedure: FIG. 19. Characteristics of B cells transduced with CA-STAT5b-ER. (A) Tonsil B cells were cultured in CD40L, IL-2 and IL-4 and transduced with CA-STAT5b-ER-IRES-ΔNGFR (circles) or with control-IRES-ΔNGFR (squares). Both cultures were split, one part was cultured without (open symbols) and another with 1 μM 4HT (closed symbols). At the indicated time points after transduction percentages of transduced cells were determined by flow cytometric analysis after staining with an APC-conjugated antibody against NGFR. Absolute cell number counts were determined based on the percentages of ΔNGFR^+ cells. The experiment shown is representative for 5 independent experiments performed. (B) CA-STAT5b-ER-IRES-ΔNGFR transduced B cells 30 days after transduction were cultured for 7 days in the absence of 4HT. Equal numbers of cells were cultured then either in the presence (closed squares) or absence of 4HT (open squares) and absolute cell numbers were determined. Shown is a representative experiment out of 3. (C) Flow cytometric analysis of a representative culture of CA-STAT5b-ER-IRES-ΔNGFR transduced B cells cultured in CD40L, IL-2 and IL-4 in the presence of 4HT. Isotype control stainings are shown as thin histograms.
We then transduced human tonsillar B cells with the CA-STAT5b-ER-IRES-ΔNGFR construct and examined the effect of 4HT on the proliferative capacity of these B cells. […]

[2] = system: BCL-6; test: BCL-6 expression in STAT5b-ER+ tonsil B cells after 4HT, RT-PCR and Western blot; assay type: cell-based, human; conditions: 4HT added back for 8 hr after 10 days without
Procedure: FIG. 21. Induction of BCL-6 expression by STAT5. (A) RT-PCR analysis of BCL-6 and HPRT in B cells transduced with CA-STAT5b-ER cultured in CD40L, IL-2 and IL-4 with 4HT. After incubation of the cells without 4HT for 10 days, 4HT was added back for 8 hr in the presence or absence of cyclohexamide (CH). This experiment was repeated 3 times with similar results. (B) Expression of BCL-6 protein in CA-STAT5b-ER-transduced B cells cultured in the presence of 4HT constantly or absence of 4HT for 12 days as determined by Western blot analysis using an anti-BCL-6 antibody. An antibody against actin was used as a protein loading control. Similar results were obtained in 3 independent experiments. (C) Dual luciferase reporter assay. Part of the promoter region of the BCL-6 gene (position −657/+471 bp) was linked to the firefly (P. pyralis) luciferase coding sequence and subcloned into the pGL3 vector. One potential STAT5 binding site in this promoter region (−548/−566 bp) was mutated from […] to […], and two different clones (BCL-6* and BCL-6**) were subcloned into the pGL3-firefly luciferase backbone. These pGL3 constructs were cotransfected with LZRS-CA-STAT5b and the Renilla luciferase containing vector into 293T cells. Both luciferase activities were measured sequentially from a single sample and relative luciferase units were calculated and corrected for the Renilla luciferase activity. […]

Substance: 4-Hydroxy-Tamoxifen [4HT]
- growth selection of CA-STAT5b-ER expressing cells (ΔNGFR+) [1]: only occurred in the presence of 4HT
- expression of the BCL-6 transcript with 4HT versus without [2]: substantially higher

Source: patent US7964406B2, “Means and methods for producing a stabilized cell of interest” (Academisch Medisch Centrum Bij De Universiteit Van Amsterdam, priority 2004, dated 2011)
